# Experiments:
# cancer cell lines = assay: Cancer cell proliferation activity of representative nucleosides, CellTiterGlo 72 h (Example 7, Tables 8 and 9); type: cell-based; details: 72 h
# How it was run: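 Percent viability was set against 0.1% DMSO (100%) and 10 μM staurosporine (0%), with signal from CellTiterGlo luminescence. Dose-response treatment began one day after seeding and lasted 72 h at 37° C under 5% or 10% CO2, with 0.1% final DMSO.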
# human LINE-1 = assay: Human LINE-1 (L1) retrotransposition dual-luciferase reporter assay in HeLa cells; type: cell-based; details: Homo sapiens, HeLa, 72 h, read-out: Human LINE-1 IC50 (Human L1 activity inhibition)
# How it was run: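 Compound dilution series (final DMSO 0.2%) added right after transfecting HeLa cells with the pYX017 L1 dual-luciferase reporter; 72 h culture at 37 °C, 5% CO2, triplicates. IC50 fitted by non-linear logistic regression to firefly-to-Renilla luminescence ratio (×10,000).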
compound,measurement,setting,value
"C#C[C@]1(CO)O[C@@H](n2ccc(N)nc2=O)C[C@@H]1O [compound 7, 4-amino-1-((2R,4S,5R)-5-ethynyl-4-hydroxy-5 (hydroxymethyl)tetrahydrofuran-2-yl)pyrimidin-2(1H)-one]",IC50,"cancer cell lines; 72 h, 5637, bladder",1240 nM
same,IC50,"cancer cell lines; CLS439, bladder",> 50000 nM
same,IC50,"cancer cell lines; HS729, muscle",2100 nM
same,IC50,"cancer cell lines; J82, bladder",2770 nM
same,IC50,"cancer cell lines; JAR, placenta",> 50000 nM
same,IC50,"cancer cell lines; MT3, breast",570 nM
same,IC50,"cancer cell lines; PC3, prostate",1090 nM
same,IC50,"cancer cell lines; RD, muscle",3860 nM
same,IC50,"cancer cell lines; T24, bladder",1030 nM
same,IC50,"cancer cell lines; Homo sapiens, 22Rv1, 72 h, 22RV1, prostate",4800 nM
same,IC50,"cancer cell lines; Homo sapiens, 786-0, 72 h, 786O, kidney",4280 nM
same,IC50,"cancer cell lines; Homo sapiens, A204, 72 h, A204, muscle",180 nM
same,IC50,"cancer cell lines; Homo sapiens, A549, 72 h, A549, lung",2190 nM
same,IC50,"cancer cell lines; Homo sapiens, A673, 72 h, A673, bone",1970 nM
same,IC50,"cancer cell lines; Homo sapiens, A2780, 72 h, A2780, ovary",2720 nM
same,IC50,"cancer cell lines; Homo sapiens, A-375, 72 h, A375, skin",3540 nM
same,IC50,"cancer cell lines; Homo sapiens, A-431, 72 h, A431, skin",2010 nM
same,IC50,"cancer cell lines; Homo sapiens, ACHN, kidney",2760 nM
same,IC50,"cancer cell lines; Homo sapiens, ASPC1, 72 h, ASPC1, pancreas",1230 nM
same,IC50,"cancer cell lines; Homo sapiens, BT-20, 72 h, BT20, breast",> 50000 nM
same,IC50,"cancer cell lines; Homo sapiens, BXPC-3, 72 h, BXPC3, pancreas",4120 nM
same,IC50,"cancer cell lines; Homo sapiens, C-33-A, C33A, endometrial",1030 nM
same,IC50,"cancer cell lines; Homo sapiens, CAKI-1, 72 h, CAKI1, kidney",450 nM
same,IC50,"cancer cell lines; Homo sapiens, COLO 205, 72 h, COLO205, colon",290 nM
same,IC50,"cancer cell lines; Homo sapiens, COLO-678, 72 h, COLO678, colon",> 50000 nM
same,IC50,"cancer cell lines; Homo sapiens, Ca-Ski, CASKI, endometrial",> 50000 nM
same,IC50,"cancer cell lines; Homo sapiens, Calu-6, 72 h, CALU6, lung",6330 nM
same,IC50,"cancer cell lines; Homo sapiens, DLD-1, 72 h, DLD1, colon",4630 nM
same,IC50,"cancer cell lines; Homo sapiens, DU-145, 72 h, DU145, prostate",3400 nM
same,IC50,"cancer cell lines; Homo sapiens, EFO-21, 72 h, EFO21, ovary",> 50000 nM
same,IC50,"cancer cell lines; Homo sapiens, EJ-28, 72 h, EJ28, bladder",3050 nM
same,IC50,"cancer cell lines; Homo sapiens, Granta-519, 72 h, GRANTA-519, hematological",330 nM
same,IC50,"cancer cell lines; Homo sapiens, HCT-15, 72 h, HCT15, colon",3280 nM
same,IC50,"cancer cell lines; Homo sapiens, HCT-116, 72 h, HCT116, colon",2440 nM
same,IC50,"cancer cell lines; Homo sapiens, HEK293, 72 h, HEK293, kidney",> 50000 nM
same,IC50,"cancer cell lines; Homo sapiens, HL-60, 72 h, HL-60, hematological",2030 nM
same,IC50,"cancer cell lines; Homo sapiens, HT-29, 72 h, HT29, colon",4060 nM
same,IC50,"cancer cell lines; Homo sapiens, HT-1080, 72 h, HT1080, connective tissue",1580 nM
same,IC50,"cancer cell lines; Homo sapiens, HeLa, endometrial",2110 nM
same,IC50,"cancer cell lines; Homo sapiens, HepG2, 72 h, HEPG2, liver",3080 nM
same,IC50,"cancer cell lines; Homo sapiens, Hs-578T, HS578T, breast",4730 nM
same,IC50,"cancer cell lines; Homo sapiens, IGROV-1, 72 h, IGROV1, ovary",3420 nM
same,IC50,"cancer cell lines; Homo sapiens, IMR-90, 72 h, IMR90, lung",> 50000 nM
same,IC50,"cancer cell lines; Homo sapiens, JEG-3, 72 h, JEG3, placenta",> 50000 nM
same,IC50,"cancer cell lines; Homo sapiens, JIMT-1, 72 h, JIMT1, breast",820 nM
same,IC50,"cancer cell lines; Homo sapiens, K562, 72 h, K-562, hematological",3520 nM
same,IC50,"cancer cell lines; Homo sapiens, Kasumi 1, 72 h, KASUMI-1, hematological",320 nM
same,IC50,"cancer cell lines; Homo sapiens, L-363, 72 h, L-363, hematological",> 50000 nM
same,IC50,"cancer cell lines; Homo sapiens, LoVo, colon",1900 nM
same,IC50,"cancer cell lines; Homo sapiens, MCF7, 72 h, MCF7, breast",> 50000 nM
same,IC50,"cancer cell lines; Homo sapiens, MDA-MB-231, 72 h, MDAMB231, breast",480 nM
same,IC50,"cancer cell lines; Homo sapiens, MDA-MB-435, 72 h, MDAMB435, skin",3490 nM
same,IC50,"cancer cell lines; Homo sapiens, MDA-MB-436, 72 h, MDAMB436, breast",3800 nM
same,IC50,"cancer cell lines; Homo sapiens, MDA-MB-468, 72 h, MDAMB468, breast",> 50000 nM
same,IC50,"cancer cell lines; Homo sapiens, MG-63, 72 h, MG63, bone",2930 nM
same,IC50,"cancer cell lines; Homo sapiens, MHH-ES-1, 72 h, MHHES1, bone",2060 nM
same,IC50,"cancer cell lines; Homo sapiens, MIA PaCa-2, 72 h, MIAPACA2, pancreas",5540 nM
same,IC50,"cancer cell lines; Homo sapiens, MINO, hematological",200 nM
same,IC50,"cancer cell lines; Homo sapiens, MV4-11, 72 h, MV4-11, hematological",4320 nM
same,IC50,"cancer cell lines; Homo sapiens, NCI-H23, 72 h, NCI-H23, lung",2790 nM
same,IC50,"cancer cell lines; Homo sapiens, NCI-H82, 72 h, NCIH82, lung",17000 nM
same,IC50,"cancer cell lines; Homo sapiens, NCI-H292, 72 h, NCIH292, lung",1940 nM
same,IC50,"cancer cell lines; Homo sapiens, NCI-H460, 72 h, NCIH460, ung",2990 nM
same,IC50,"cancer cell lines; Homo sapiens, OVCAR-3, 72 h, OVCAR3, ovary",2390 nM
same,IC50,"cancer cell lines; Homo sapiens, OVCAR-4, 72 h, OVCAR4, ovary",> 50000 nM
same,IC50,"cancer cell lines; Homo sapiens, PANC-1, 72 h, PANC1, pancreas",> 50000 nM
same,IC50,"cancer cell lines; Homo sapiens, PLC-PRF-5, 72 h, PLCPRF5, liver",> 50000 nM
same,IC50,"cancer cell lines; Homo sapiens, Panc1005, 72 h, PANC1005, pancreas",2570 nM
same,IC50,"cancer cell lines; Homo sapiens, Ramos, hematological",370 nM
same,IC50,"cancer cell lines; Homo sapiens, SAOS-2, 72 h, SAOS2, bone",640 nM
same,IC50,"cancer cell lines; Homo sapiens, SK-BR-3, 72 h, SKBR3, breast",2110 nM
same,IC50,"cancer cell lines; Homo sapiens, SK-HEP1, 72 h, SKHEP1, liver",1290 nM
same,IC50,"cancer cell lines; Homo sapiens, SK-LMS-1, 72 h, SKLMS1, uterus",4200 nM
same,IC50,"cancer cell lines; Homo sapiens, SK-MEL-5, 72 h, SKMEL5, skin",> 50000 nM
same,IC50,"cancer cell lines; Homo sapiens, SK-MEL-28, 72 h, SKMEL28, skin",> 50000 nM
same,IC50,"cancer cell lines; Homo sapiens, SK-OV-3, 72 h, SKOV3, ovary",3110 nM
same,IC50,"cancer cell lines; Homo sapiens, SU-DHL10, 72 h, SU-DHL-10, hematological",690 nM
same,IC50,"cancer cell lines; Homo sapiens, SU-DHL-6, 72 h, SU-DHL-6, hematological",1060 nM
same,IC50,"cancer cell lines; Homo sapiens, SW-620, 72 h, SW620, colon",2930 nM
same,IC50,"cancer cell lines; Homo sapiens, TE-671, 72 h, TE671, muscle",3490 nM
same,IC50,"cancer cell lines; Homo sapiens, THP-1, 72 h, THP-1, hematological",3430 nM
same,IC50,"cancer cell lines; Homo sapiens, U2OS, bone",> 50000 nM
same,IC50,"cancer cell lines; Homo sapiens, UMUC3, 72 h, UMUC3, bladder",3070 nM
same,IC50,"cancer cell lines; Homo sapiens, UO-31, 72 h, UO31, kidney",1530 nM
same,IC50,"cancer cell lines; Homo sapiens, WSU-NHL, hematological",340 nM
same,IC50,"cancer cell lines; NCI-H358M, NCIH358M, lung",290 nM
same,IC50,"cancer cell lines; PBMC, hematological",> 50000 nM
same,IC50,"cancer cell lines; RD-ES, RDES, bone",> 50000 nM
same,IC50,human LINE-1,9.7 nM
